How the values were obtained:
rape = assay: Test B pre/postemergence rape; type: in vivo, Brassica napus
Procedure, shortened: (§1)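 Test chemicals in a non-phytotoxic solvent mixture with surfactant were sprayed preemergence onto planted seeds and postemergence onto plants 2 to 18 cm tall (1- to 4-leaf stage). After twelve to sixteen days in a greenhouse, injury was visually rated against untreated controls from 0 (no effect) to 10 (complete control).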

smallflower flatsedge = assay: Test B flood test smallflower flatsedge; type: in vivo, Cyperus difformis; details: for S. Flatsedge plant response rating / Plant response rating, S. Flatsedge (0 to 10 scale, 0 is no effect, 10 is complete control): Pre-emergence; for Plant response rating, S. Flatsedge (0 to 10 scale, 0 is no effect, 10 is complete control): Rate 62 g/ha
Procedure, shortened: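 Plants were grown to the 2-leaf stage before treatment with test chemical, then held in a greenhouse for twelve to sixteen days. Injury was visually rated against untreated controls on a 0–10 scale, where 0 is no effect and 10 is complete control.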

soybean = assay: Test B pre/postemergence soybean; type: in vivo, Glycine max
Procedure, shortened: as §1

corn = assay: Test B pre/postemergence corn; type: in vivo, Zea mays
Procedure, shortened: as §1

[1] = Postemergence, Rate 125 g/ha, scale 0 to 10, 0 is no effect, 10 is complete control
[2] = Postemergence, Rate 250 g/ha, scale 0 to 10, 0 is no effect, 10 is complete control
[3] = Postemergence, Rate 1000 g/ha, scale 0 to 10 (0 no effect, 10 complete control)
[4] = Preemergence, Rate 250 g/ha, scale of 0 to 10 where 0 is no effect and 10 is complete control
[5] = Preemergence, Rate 500 g/ha, scale of 0 to 10 where 0 is no effect and 10 is complete control
[6] = Rate 500 g/ha, Postemergence, scale 0 to 10, 0 no effect, 10 complete control
[7] = Rate 1000 g/ha, Preemergence, scale 0 to 10 (0 no effect, 10 complete control)
[8] = Rate 125 g/ha, flood test species, scale 0 to 10 where 0 is no effect and 10 is complete control
[9] = Rate 250 g/ha, flood-test species, scale 0 to 10, 0 is no effect, 10 is complete control
[10] = Rate 500 g/ha, flood test species, scale 0 to 10 (0 no effect, 10 complete control)
[11] = Preemergence, Rate 62 g/ha, scale 0 to 10 (0 no effect, 10 complete control)
[12] = Rate 62 g/ha, Postemergence, scale of 0 to 10 where 0 is no effect and 10 is complete control
[13] = flood test species, visual evaluation after twelve to sixteen days

Structure (SMILES) | Plant response rating, Rape (rape; [1]) | Plant response rating, Rape (rape; [2]) | Rape plant response rating (0 to 10 scale) (rape; Preemergence, Rate 125 g/ha) | Rape plant response rating (rape; [4]) | Rape plant response rating (rape; [5]) | Plant response rating, Rape (rape; [6]) | S. Flatsedge plant response rating (smallflower flatsedge; [9]) | S. Flatsedge plant response rating (smallflower flatsedge; [10]) | Plant response rating, Soybean (soybean; [1]) | Plant response rating, Soybean (soybean; [2]) | Soybean plant response rating (0 to 10 scale) (soybean; Preemergence, Rate 125 g/ha) | Soybean plant response rating (soybean; [4]) | Soybean plant response rating (soybean; [5]) | Plant response rating, Soybean (soybean; [6]) | Plant response rating, Corn (corn; [1]) | Plant response rating, Corn (corn; [2]) | Corn plant response rating (0 to 10 scale) (corn; Preemergence, Rate 125 g/ha) | Corn plant response rating (corn; [4]) | Corn plant response rating (corn; [5]) | Plant response rating, Corn (corn; [6]) | also measured
CCOC(=O)C(C)N(C(=O)n1oc(=O)n(C)c1=O)c1ccc(F)cc1 (stereo not drawn) [Compound 365] | 0 | 0 | 0 | 0 | 0 | 0 | 0 | 0 | 0 | 2 | 0 | 0 | 0 | 2 | 0 | 0 | 0 | 0 | 0 | 0 | Rape plant response rating (rape; [3]): 0; Plant response rating, Rape (rape; [7]): 0; S. Flatsedge plant response rating (smallflower flatsedge; Rate 1000 g/ha, scale 0 to 10 (0 no effect, 10 complete control)): 0; S. Flatsedge plant response rating (smallflower flatsedge; [8]): 0; Soybean plant response rating (soybean; [3]): 3; Plant response rating, Soybean (soybean; [7]): 0; Corn plant response rating (corn; [3]): 0; Plant response rating, Corn (corn; [7]): 0
CC(C)N(C(=O)n1oc(=O)n(C)c1=O)c1ccc(F)cc1F [Compound 368] | 0 | 2 | 0 | 6 | 10 | 5 | 2 | 4 | 5 | 5 | 2 | 7 | 8 | 5 | 5 | 6 | 6 | 7 | 10 | 7 | Plant response rating, Rape (rape; [11]): 0; Rape plant response rating (rape; [12]): 0; Plant response rating, S. Flatsedge (0 to 10 scale, 0 is no effect, 10 is complete control) (smallflower flatsedge; [13]): 0; S. Flatsedge plant response rating (smallflower flatsedge; [8]): 0; Plant response rating, Soybean (soybean; [11]): 0; Soybean plant response rating (soybean; [12]): 4; Plant response rating, Corn (corn; [11]): 3; Corn plant response rating (corn; [12]): 0
CC(C)N(C(=O)n1oc(=O)n(N2C(C)CCCC2C)c1=O)c1ccc(F)cc1F (stereo not drawn) [Compound 383] | 0 | 0 | 0 | 0 | 0 | 0 | 0 | 0 | 3 | 3 | 0 | 0 | 0 | 5 | 0 | 0 | 0 | 0 | 0 | 0 | Plant response rating, Rape (rape; [11]): 0; Rape plant response rating (rape; [12]): 0; Plant response rating, S. Flatsedge (0 to 10 scale, 0 is no effect, 10 is complete control) (smallflower flatsedge; [13]): 0; S. Flatsedge plant response rating (0 to 10 scale, 0 is no effect, 10 is complete control) (smallflower flatsedge; Rate 125 g/ha, under heading Pre-emergence, flood test species, visual evaluation after twelve to sixteen days): 0; Plant response rating, Soybean (soybean; [11]): 0; Soybean plant response rating (soybean; [12]): 2; Plant response rating, Corn (corn; [11]): 0; Corn plant response rating (corn; [12]): 0
